EPA's ToxRefDB 2

Legend:
[1] = tested on: mouse; conditions: Carcinogenicity, b6c3f1, Oral, Feed, dose end: 101 week, group: systemic
[2] = tested on: rat; conditions: Carcinogenicity, fischer, Oral, Feed, dose end: 101 week, group: systemic
[3] = tested on: rat; conditions: Subchronic oral toxicity in rodents, other, Feed, dose end: 13 week, group: systemic
[4] = tested on: rat; conditions: Subchronic oral toxicity in rodents, sprague dawley, Feed, dose end: 13 week, group: systemic, systemic / clinical chemistry / thyroxine (t4) / thyroxine (t4)
[5] = tested on: rat; conditions: Prenatal developmental toxicity study, sprague dawley, Oral, Gavage/Intubation, dose end: 15 GD
[6] = tested on: mouse; conditions: Subchronic oral toxicity in rodents, cd1, Feed, dose end: 90 day, group: systemic, systemic / clinical chemistry / aminopyrine-n-demethylase / aminopyrine-n-demethylase + systemic / clinical chemistry / p-nitroanisole …
[7] = tested on: rat; conditions: Prenatal developmental toxicity study, sprague dawley, Oral, Gavage/Intubation, dose end: 15 GD; remark: listed apart in the source
[8] = tested on: dog; conditions: Subchronic oral toxicity in nonrodent, beagle, Feed, dose end: 13 week, group: systemic, systemic / hematology / erythrocyte (rbc) count differential / erythrocyte (rbc) + systemic / in life observation / body weight / body …
[9] = tested on: rat; conditions: Combined chronic toxicity/carcinogenicity, sprague dawley, Oral, Feed, dose end: 2 year, group: systemic
[10] = tested on: dog; conditions: Chronic toxicity, beagle, Oral, Feed, dose end: 52 week, group: systemic
[11] = tested on: rat; conditions: Subchronic oral toxicity in rodents, other, Feed, dose end: 90 day, group: systemic
[12] = tested on: rat; conditions: Developmental neurotoxicity range-finding study; sprague dawley; Oral; Feed; dose end: 21 PND; group: cannot be grouped; systemic / in life observation / body weight / offspring (pup) weight
[13] = tested on: dog; conditions: Subchronic oral toxicity in nonrodent, beagle, Feed, dose end: 90 day, group: systemic, systemic / hematology / erythrocyte (rbc) count differential / erythrocyte (rbc) + systemic / hematology / mean corpuscular (cell) volume (…
[14] = tested on: dog; conditions: Chronic toxicity, beagle, Oral, Feed, dose end: 12 month, group: systemic
[15] = tested on: dog; conditions: Chronic toxicity; beagle; Oral; Feed; dose end: 12 month; group: systemic; systemic / pathology microscopic / adrenal gland / fatty change + systemic / pathology microscopic / adrenal gland / hyperplasia + systemic…
[16] = tested on: rat; conditions: Peri- and post-natal toxicity study (Segment III), sprague dawley, Oral, Gavage/Intubation, dose end: 42 PND
[17] = tested on: rat; conditions: Developmental neurotoxicity study; sprague dawley; Oral; Gavage/Intubation; dose end: 140 PND; group: cannot be grouped; systemic / in life observation / body weight / body weight + developmental / offspring survival late / [other] / [other] + systemic / in …
[18] = tested on: rat; conditions: Carcinogenicity, other, Oral, Feed, dose end: 78 week, group: systemic
[19] = tested on: mouse; conditions: Carcinogenicity; b6c3f1; Oral; Feed; dose end: 78 week; group: systemic; systemic / pathology microscopic / liver / carcinoma + systemic / in life observation / body weight / body weight + systemic / in life …
[20] = systemic / in life observation / body weight / body weight
[21] = systemic / in life observation / body weight / body weight + systemic / pathology microscopic / blood vessel / hemangiosarcoma + systemic / …
[22] = systemic / in life observation / body weight / body weight + systemic / pathology microscopic / liver / neoplastic nodule + systemic / …
[23] = systemic / pathology microscopic / kidney / hypertrophy
[24] = systemic / pathology microscopic / kidney / hypertrophy + systemic / in life observation / body weight / body weight + systemic / in life …
[25] = total + systemic / clinical chemistry / thyroid stimulating hormone (…
[26] = group: developmental, developmental / developmental malformation / bone / absent + developmental / developmental malformation / bone / bent + developmental / …
[27] = group: maternal, systemic / in life observation / body weight / body weight + systemic / in life observation / body weight / body weight gain + systemic / in…
[28] = group: developmental, developmental / developmental malformation / bone / incomplete ossification
[29] = group: maternal, systemic / in life observation / body weight / body weight gain + systemic / in life observation / food consumption / food consumption
[30] = group: maternal, systemic / in life observation / body weight / body weight gain + systemic / in life observation / food consumption / food consumption + …
[31] = systemic / clinical chemistry / thyroid stimulating hormone (thyrotropin) (tsh) / thyroid stimulating hormone (=thyrotropin) (tsh) + …
[32] = systemic / in life observation / body weight / body weight gain
[33] = systemic / in life observation / body weight / body weight gain + systemic / clinical chemistry / cholesterol / cholesterol + systemic / …
[34] = systemic / pathology microscopic / kidney / pigmentation
[35] = systemic / pathology microscopic / kidney / pigmentation + systemic / clinical chemistry / cholesterol / cholesterol + systemic / clinical …
[36] = systemic / organ weight / spleen / absolute + systemic / organ weight / spleen / relative to body weight + systemic / pathology microscopic…
[37] = systemic / pathology gross / liver / accentuated lobular pattern + systemic / pathology microscopic / eye / lesion(s) (nos) + systemic / …
[38] = group: maternal, reproductive / offspring survival early / dead fetuses / dead fetuses
[39] = group: offspring, systemic / hematology / leukocyte (wbc) count differential / leukocyte (wbc) + systemic / in life observation / body weight / offspring (pup…
[40] = group: parental, systemic / in life observation / body weight / body weight gain
[41] = systemic / pathology microscopic / liver / necrosis
[42] = systemic / pathology microscopic / liver / necrosis + systemic / pathology microscopic / thyroid gland / adenoma + systemic / in life …

## Cc1cc(C)c(N)cc1C [2,4,5-Trimethylaniline]
[1]; [20]
  LOAEL: 7.5 mg/kg/day
  NOAEL: < 7.5 mg/kg/day
[1]; [21]
  LEL: 7.5 mg/kg/day
  NEL: < 7.5 mg/kg/day
[2]; [20]
  LOAEL: 10 mg/kg/day
  NOAEL: < 10 mg/kg/day
[2]; [22]
  LEL: 10 mg/kg/day
  NEL: < 10 mg/kg/day

## CCOP(=O)([O-])C(N)=O.[NH4+] [Fosamine ammonium]
[3]; [23]
  LEL: 50 mg/kg/day
  LOAEL: 50 mg/kg/day
[3]; [24]
  NEL: 10 mg/kg/day
  NOAEL: 10 mg/kg/day

## S=C([S-])NCCNC(=S)[S-].S=C([S-])NCCNC(=S)[S-].[Mn+2].[Zn+2] [Mancozeb]
[4]; total
  LEL: 17.8 mg/kg/day
  LOAEL: 17.8 mg/kg/day
[4]; [25]
  NEL: 9.24 mg/kg/day
  NOAEL: 9.24 mg/kg/day
[5]; [26]
  LEL: 512 mg/kg/day
  LOAEL: 512 mg/kg/day
  NEL: 128 mg/kg/day
  NOAEL: 128 mg/kg/day
[5]; [27]
  LEL: 128 mg/kg/day
  LOAEL: 128 mg/kg/day
  NEL: 32 mg/kg/day
  NOAEL: 32 mg/kg/day
[6]
  LEL: 167 mg/kg/day
  LOAEL: 167 mg/kg/day
  NEL: 18.1 mg/kg/day
  NOAEL: 18.1 mg/kg/day
[7]; [28]
  LEL: 2 mg/kg/day
  NEL: < 2 mg/kg/day
[7]; group: developmental, developmental / developmental malformation / bone / incomplete ossification + developmental / developmental malformation / brain / [other]
  LOAEL: 8 mg/kg/day
[7]; group: developmental, developmental / developmental malformation / bone / incomplete ossification + developmental / developmental malformation / brain / [other…
  NOAEL: 2 mg/kg/day
[7]; [29]
  LEL: 128 mg/kg/day
  LOAEL: 128 mg/kg/day
[7]; [30]
  NEL: 32 mg/kg/day
  NOAEL: 32 mg/kg/day
[8]
  LEL: 28.6 mg/kg/day
  LOAEL: 28.6 mg/kg/day
  NEL: 2.98 mg/kg/day
  NOAEL: 2.98 mg/kg/day
[9]; systemic / clinical chemistry / thyroid stimulating hormone (thyrotropin) (tsh) / thyroid stimulating hormone (=thyrotropin) (tsh)
  LEL: 2.33 mg/kg/day
[9]; [31]
  LOAEL: 30.9 mg/kg/day
  NEL: 0.77 mg/kg/day
  NOAEL: 4.38 mg/kg/day
[10]; [32]
  LEL: 7.26 mg/kg/day
  LOAEL: 7.26 mg/kg/day
[10]; [33]
  NEL: 1.75 mg/kg/day
  NOAEL: 1.75 mg/kg/day
[11]; [34]
  LEL: 7.42 mg/kg/day
  LOAEL: 7.42 mg/kg/day
[11]; [35]
  NEL: 3.49 mg/kg/day
  NOAEL: 3.49 mg/kg/day
[12]
  LEL: 30 mg/kg/day
  LOAEL: 30 mg/kg/day
  NEL: 5 mg/kg/day
  NOAEL: 5 mg/kg/day

## O=C(NC(=O)c1c(F)cccc1F)Nc1cc(Cl)c(OC(F)(F)C(F)C(F)(F)F)c(Cl)c1F (configuration not stated) [Noviflumuron]
[13]
  LEL: 113 mg/kg/day
  LOAEL: 113 mg/kg/day
  NEL: 1.06 mg/kg/day
  NOAEL: 1.06 mg/kg/day

## CC(C)(C)C(O)(CCc1ccc(Cl)cc1)Cn1cncn1 (configuration not stated) [Tebuconazole]
[14]; [36]
  LEL: 15.5 mg/kg/day
  NEL: < 15.5 mg/kg/day
[14]; [37]
  LOAEL: 77.3 mg/kg/day
  NOAEL: 15.5 mg/kg/day
[15]
  LEL: 4.39 mg/kg/day
  LOAEL: 4.39 mg/kg/day
  NEL: 2.96 mg/kg/day
  NOAEL: 2.96 mg/kg/day
[16]; [38]
  LEL: 60 mg/kg/day
  LOAEL: > 60 mg/kg/day
  NEL: 20 mg/kg/day
  NOAEL: ≥ 60 mg/kg/day
[16]; [39]
  LEL: 60 mg/kg/day
  LOAEL: > 60 mg/kg/day
  NEL: 20 mg/kg/day
  NOAEL: ≥ 60 mg/kg/day
[16]; [40]
  LEL: 60 mg/kg/day
  LOAEL: > 60 mg/kg/day
  NEL: 20 mg/kg/day
  NOAEL: ≥ 60 mg/kg/day

## O=C1CCC(N2C(=O)c3ccccc3C2=O)C(=O)N1 (configuration not stated) [Thalidomide]
[17]
  LEL: 100 mg/kg/day
  LOAEL: > 100 mg/kg/day
  NEL: < 100 mg/kg/day
  NOAEL: ≥ 100 mg/kg/day

## ClC(Cl)=C(c1ccc(Cl)cc1)c1ccc(Cl)cc1 [p,p'-DDE]
[18]; [41]
  LOAEL: 12.1 mg/kg/day
  NOAEL: < 12.1 mg/kg/day
[18]; [42]
  LEL: 12.1 mg/kg/day
  NEL: < 12.1 mg/kg/day
[19]
  LEL: 22.2 mg/kg/day
  LOAEL: > 39.1 mg/kg/day
  NEL: < 22.2 mg/kg/day
  NOAEL: ≥ 39.1 mg/kg/day
